Literature values in US20180280392A1, “PHARMACEUTICAL PREPARATION COMPRISING CYCLIN INHIBITOR AND PREPARATION METHOD THEREOF” (Jiangsu Hansoh Pharmaceutical Group Co., Ltd., priority 2014, published 2018).
pIC50: −log10 of the molar value. Read-outs that look alike come from different tables or passages of the source.

Tested on: phosphorylation of retinoblastoma tumor suppressor (RB) in MDA-MB-435 breast cancer cells

CC(=O)c1c(C)c2cnc(Nc3ccc(N4CCNCC4)cn3)nc2n(C2CCCC2)c1=O [compound of formula I, 6-acetyl-8-cyclopentyl-5-methyl-2-(5-piperazin-1-yl-pyridin-2-yl-amino)-8H-pyrido[2,3-d]pyrimidin-7-one]
pIC50 (Ser780 site, read-out: IC50, reduction of phosphorylation of RB on Ser780): 7.18
pIC50 (Ser795 site, read-out: IC50, reduction of phosphorylation of RB on Ser795): 7.20
